± gives the expanded uncertainty stated by the source.
Conditions: Crystal; Adiabatic calorimetry

- Triple point temperature: 283.55 ± 0.05 K
Compound: CCCCn1cc[n+](C)c1.F[P-](F)(F)(F)(F)F [1-butyl-3-methylimidazolium hexafluorophosphate]

Reference: the NIST ThermoML archive (doi:10.1016/j.jct.2016.07.012)
